Key:
[1] = tested on: human CD8 T cells bearing anti-mesothelin CAR; experiment: IL2 and IFNγ production in human anti-mesothelin CAR T cells stimulated with mesothelin-coated beads; assay type: cell-based; details: lenalidomide 10 uM vs absence
[2] = tested on: human CD4 and CD8 T cells; experiment: IL2 and IFNγ production (flow cytometry) in human T cells stimulated with anti-CD3/anti-CD28 beads; assay type: cell-based; details: lenalidomide 10 uM vs absence

Nc1cccc2c1CN(C1CCC(=O)NC1=O)C2=O (stereo not drawn) [lenalidomide]
increased both IL2 and IFNγ production: IFNγ production in human CD8 T cells bearing anti-mesothelin CAR [1] | IL2 production in human CD8 T cells bearing anti-mesothelin CAR [1]
augments IL2 and IFN levels: IFNγ production in human CD8 T cells bearing anti-mesothelin CAR ([1]; listed as Lenalidomide) | IL2 production in human CD8 T cells bearing anti-mesothelin CAR ([1]; listed as Lenalidomide) | IFNγ production in human CD4+ T cells ([2]; listed as Lenalidomide) | IFNγ production in human CD8+ T cells ([2]; listed as Lenalidomide) | IL2 production in human CD4+ T cells ([2]; listed as Lenalidomide) | IL2 production in human CD8+ T cells ([2]; listed as Lenalidomide)
increased IL2 and IFNγ production: IFNγ production in human CD4+ T cells [2] | IFNγ production in human CD8+ T cells [2] | IL2 production in human CD4+ T cells [2] | IL2 production in human CD8+ T cells [2]

From patent publication US20160017286A1, “IKAROS INHIBITION TO AUGMENT ADOPTIVE T CELL TRANSFER” (THE TRUSTEES OF THE UNIVERSITY OF PENNSYLVANIA, priority 2013, published 2016)
